What all share (assay type): in vivo
Assay [1] has as its system Cabbage Looper (Trichoplusia ni, TRIPNI). The experiment in a line: Bioassays on Cabbage Looper (CL), 128-well diet tray assay. Conditions: Trichoplusia ni. In short, it runs like this:
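Activity is mean percent mortality over eight wells of second-instar larvae exposed to diet treated at 50 μg/cm^2 for 5–7 days at 25° C.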

The subject of assay [2] is Yellow Fever Mosquito (Aedes aegypti, AEDSAE). Summed up:
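Larvae ~1 day old, in liver powder/water; compound from 4000 ppm DMSO stock diluted with water/acetone (90:10); 6 reps; lidded, RT, 3 d; mortality scored per well, rated.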

In assay [3] the test system is Beet Armyworm (Spodoptera exigua, LAPHEG). The experiment in a line: Bioassays on Beet Armyworm (BAW), 128-well diet tray assay. Particulars: Spodoptera exigua. In short, it runs like this:
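Diet-overlay assay: 50 μg/cm^2 compound applied in 90:10 acetone-water to artificial diet, allowed to dry, then infested with 1–5 L2 larvae/well; 8 wells/compound; covered, vented; 25° C., 14:10 L:D, 5–7 d; % mortality per well, averaged.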

The test system of assay [4] is Green Peach Aphid (Myzus persicae, MYZUPE). In words: Bioassays on Green Peach Aphid (GPA), foliar spray on cabbage seedlings. Conditions: 72 h. In short, it runs like this:
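Percent control (Abbott-corrected versus solvent-sprayed plants) comes from live-aphid counts three days after treatment at about 25° C. Test solution at 200 ppm was sprayed to runoff onto both leaf surfaces of cabbage seedlings infested a day earlier with 20-50 aphids; four replicate pots.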

Where [5] appears, read: Cabbage Looper, rating class, read-out: CL.
Setting [6] is: Yellow Fever Mosquito, rating class.
The mark [7] stands for this setting: Beet Armyworm, rating class, read-out: BAW.
Setting [8] is: Green Peach Aphid, rating class, read-out: GPA.
Setting [9] is: Table ABC: Biological Results, species CL, read-out: CL.
Setting [10] is: Table ABC: Biological Results, species YFM.
[11] abbreviates: Table ABC: Biological Results, species BAW, read-out: BAW.
Where [12] appears, read: Table ABC: Biological Results, species GPA, read-out: GPA.

Where two headings read alike, the source gives them in different places.

For the molecule `CCCC(=O)Nc1c(F)ccc(NC(=O)c2cc(NC(=O)[C@H]3[C@H](c4cc(Cl)c(Cl)c(Cl)c4)C3(Cl)Cl)ccc2Cl)c1F` [F1655, N-(3-Butyramido-2,4-difluorophenyl)-2-chloro-5-((1R,3R)-2,2-dichloro-3-(3,4,5-trichlorophenyl)cyclopropane-1-carboxamido)benzamide], the pest or weed control at 50 µg/cm2 in assay [1] (setting [5]) and in assay [3] (setting [7]) was 50 to 100% each time. Further, the YFM result in assay [2] (setting [6]) is “B (More than 0 – Less than 80)”. The pest or weed control at 200 µg/mL in assay [4] (setting [8]) was in the range of 0 to 80%.

As to `O=C(Nc1ccc(F)cc1)c1c(Cl)ccc(NC(=O)[C@H]2[C@H](c3ccc(F)c(Cl)c3)C2(Cl)Cl)c1Cl` (relative stereo) [F1103, trans-2,6-Dichloro-3-(2,2-dichloro-3-(3-chloro-4-fluorophenyl)cyclopropane-1-carboxamido)-N-(4-fluorophenyl)benzamide], the pest or weed control at 50 µg/cm2 in assay [1] (setting [9]) and in assay [3] (setting [11]) was 50 to 100% each time. In addition, the YFM entry in assay [2] (setting [10]) is “A (80–100)”. Moreover, the pest or weed control at 200 µg/mL in assay [4] (setting [12]) was 0 to 80%.

Take `CN(C(=O)C(F)F)c1c(F)ccc(NC(=O)c2cc(NC(=O)[C@H]3[C@H](c4ccc(F)c(Cl)c4)C3(Cl)Cl)ccc2Cl)c1F` [F1460, 2-Chloro-5-((1R,3R)-2,2-dichloro-3-(3-chloro-4-fluorophenyl)cyclopropane-1-carboxamido)-N-(3-(2,2-difluoro-N-methylacetamido)-2,4-difluorophenyl)benzamide]: the pest or weed control at 50 µg/cm2 in assay [1] (setting [5]) and in assay [3] (setting [7]) was 50 to 100% each time. In addition, in assay [2] (setting [6]), the YFM entry was “A (80–100)”. The pest or weed control at 200 µg/mL in assay [4] (setting [8]) lay within 80 to 100%.

For the molecule `Nc1c(F)ccc(NC(=O)c2cc(NC(=O)[C@H]3[C@H](c4ccc(Cl)cc4)C3(Cl)Cl)ccc2Cl)c1F` (relative stereo) [F1593, trans-N-(3-Amino-2,4-difluorophenyl)-2-chloro-5-(2,2-dichloro-3-(4-chlorophenyl)cyclopropane-1-carboxamido)benzamide], the pest or weed control at 50 µg/cm2 in assay [1] (setting [5]) and in assay [3] (setting [7]) was 50 to 100% throughout. For the same molecule, the YFM result in assay [2] (setting [6]) is on record as “A (80–100)”. Moreover, the pest or weed control at 200 µg/mL in assay [4] (setting [8]) is 80 to 100%.

Take `O=C(Nc1c(F)ccc(NC(=O)C(F)F)c1F)c1cc(NC(=O)[C@H]2[C@H](c3ccc(Cl)c(Cl)c3)C2(Cl)Cl)ccc1Cl` [F1240, 2-Chloro-5-((1R,3R)-2,2-dichloro-3-(3,4-dichlorophenyl)cyclopropane-1-carboxamido)-N-(3-(2,2-difluoroacetamido)-2,6-difluorophenyl)benzamide]: the pest or weed control at 50 µg/cm2 in assay [1] (setting [9]) and in assay [3] (setting [11]) was 50 to 100% in each case. Further, in assay [2] (setting [10]), the YFM result is “A (80–100)”. Besides, in assay [4] (setting [12]), the pest or weed control at 200 µg/mL is 0 to 80%.

On to `CCC(=O)Nc1c(F)ccc(NC(=O)c2cc(NC(=O)[C@H]3[C@H](c4ccc(F)c(Cl)c4)C3(Cl)Cl)ccc2Cl)c1F` [F1704, 2-Chloro-5-((1R,3R)-2,2-dichloro-3-(3-chloro-4-fluorophenyl)cyclopropane-1-carboxamido)-N-(2,4-difluoro-3-propionamidophenyl)benzamide], for which the pest or weed control at 50 µg/cm2 in assay [1] (setting [5]) and in assay [3] (setting [7]) was 50 to 100% in each case. In assay [2] (setting [6]), the YFM entry is on record as “A (80–100)”. Further, the pest or weed control at 200 µg/mL in assay [4] (setting [8]) was in the range of 80 to 100%.

With `O=C(Nc1ccc(F)cc1F)c1c(Cl)ccc(NC(=O)[C@H]2[C@H](c3ccc(F)c(Cl)c3)C2(Cl)Cl)c1Cl` (relative stereo) [F1105, trans-2,6-dichloro-3-(2,2-dichloro-3-(3-chloro-4-fluorophenyl)cyclopropane-1-carboxamido)-N-(2,4-difluorophenyl)benzamide], the pest or weed control at 50 µg/cm2 in assay [1] (setting [9]) and in assay [3] (setting [11]) was 50 to 100% in each case. The YFM result in assay [2] (setting [10]) was “A (80–100)”. For the same molecule, the pest or weed control at 200 µg/mL in assay [4] (setting [12]) is 0 to 80%.

As for `CC(=O)Nc1c(F)cc(F)c(NC(=O)c2cc(NC(=O)[C@H]3[C@H](c4ccc(F)c(C(F)(F)F)c4)C3(Cl)Cl)ccc2Cl)c1F` [F1613, N-(3-Acetamido-2,4,6-trifluorophenyl)-2-chloro-5-((1R,3R)-2,2-dichloro-3-(4-fluoro-3-(trifluoromethyl)phenyl)cyclopropane-1-carboxamido)benzamide], the pest or weed control at 50 µg/cm2 in assay [1] (setting [5]) and in assay [3] (setting [7]) was 50 to 100% each time. In addition, the YFM entry in assay [2] (setting [6]) is reported as “A (80–100)”. Moreover, the pest or weed control at 200 µg/mL in assay [4] (setting [8]) fell in the range of 80 to 100%.

Regarding `O=C(Nc1ccc(F)cc1)c1c(Cl)ccc(NC(=O)[C@H]2[C@H](c3ccc(F)c(Cl)c3)C2(Cl)Cl)c1F` [F1465, 6-chloro-3-((1R,3R)-2,2-dichloro-3-(3-chloro-4-fluorophenyl)cyclopropane-1-carboxamido)-2-fluoro-N-(4-fluorophenyl)benzamide], the pest or weed control at 50 µg/cm2 in assay [1] (setting [5]) and in assay [3] (setting [7]) was 50 to 100% each time. Moreover, in assay [2] (setting [6]), the YFM result is reported as “A (80–100)”. Moreover, the pest or weed control at 200 µg/mL in assay [4] (setting [8]) was in the range of 80 to 100%.

`O=C(CNC(=O)c1cc(NC(=O)[C@H]2[C@H](c3cc(Cl)cc(Cl)c3)C2(Cl)Cl)ccc1Cl)NCC(F)(F)F` (relative stereo) [F2078, trans-2-Chloro-5-(2,2-dichloro-3-(3,5-dichlorophenyl)cyclopropane-1-carboxamido)-N-(2-oxo-2-(2,2,2-trifluoroethylamino)ethyl)benzamide]: the pest or weed control at 50 µg/cm2 in assay [1] (Cabbage Looper, Table ABC / ABC-DP rating, read-out: CL rating) lay in the range of 50 to 100%; in assay [3] (Beet Armyworm, Table ABC / ABC-DP rating, read-out: BAW rating) it was 50 to 100%. The YFM rating result in assay [2] (Yellow Fever Mosquito, Table ABC / ABC-DP rating) was “A (80–100)”. Besides, in assay [4] (Green Peach Aphid, Table ABC / ABC-DP rating, read-out: GPA rating), the pest or weed control at 200 µg/mL was 80 to 100%.

The values above are taken from patent US20250228239A1, “MOLECULES HAVING PESTICIDAL UTILITY, AND INTERMEDIATES, COMPOSITIONS, AND PROCESSES, RELATED THERETO” (priority 2024, published 2025).
